# Results taken from ChEMBL document CHEMBL3785015, “Phenobarbital pharmacokinetics and bioavailability in adults” (J Clin Pharmacol, 1982).
# Columns and labels:
# [1] = Oral bioavailability in human subjects receiving phenobarbital tablets after having received phenobarbital infusion for […] withdrawal; type: ADME, organism-based; conditions: in vivo
# [2] = Oral bioavailability in healthy human subjects (6 subjects) at 2.9 mg/kg by HPLC method; type: ADME, organism-based; conditions: in vivo
# [3] = Elimination half life in healthy human subjects (6 subjects) at 2.6 mg/kg, iv measured during intravenous control dose (period-1) by HPLC method; type: ADME, organism-based; conditions: in vivo, read-out: beta t1/2 (converted)
# [4] = Elimination half life in healthy human subjects (6 subjects) measured during alkaline diuresis dose (period-2) by HPLC method; type: ADME, organism-based; conditions: in vivo, read-out: beta t1/2 (converted)
# [5] = Terminal half life in healthy human subjects (6 subjects) at 2.6 mg/kg, iv by HPLC method; type: ADME, organism-based; conditions: in vivo, read-out: beta t1/2 (converted)
# [6] = Drug dissolution in aqueous medium after 90 mins; type: physicochemical; conditions: buffer, 1.5 h
# [7] = Tmax in human; type: ADME, organism-based; conditions: in vivo
# [8] = Corrected oral bioavailability in healthy human subjects (6 subjects) at 2.9 mg/kg by HPLC method; type: ADME, organism-based; conditions: in vivo
# [9] = Drug dissolution in 0.1N HCl measured during 15 mins; type: physicochemical; conditions: buffer, 0.25 h
# [10] = Renal clearance in healthy human subjects (6 subjects) at 2.6 mg/kg, iv by HPLC method; type: ADME, organism-based, Kidney; conditions: in vivo
# Homo sapiens [11] = experiment: Distribution half life in healthy human subjects (6 subjects) at 2.6 mg/kg, iv by HPLC method; type: ADME, organism-based; conditions: in vivo
# [12] = Total body clearance in healthy human subjects (6 subjects) at 2.6 mg/kg, iv by HPLC method; type: ADME, organism-based; conditions: in vivo
# [13] = Tmax in adult human; type: ADME, organism-based; conditions: in vivo
# Homo sapiens [14] = experiment: Disposition rate constant at distribution phase in healthy human subjects (6 subjects) at 2.6 mg/kg, iv by HPLC method; type: ADME, organism-based; conditions: in vivo
# [15] = Drug dissolution in water measured during 15 mins; type: physicochemical; conditions: buffer, 0.25 h
# [16] = Drug dissolution in acid medium after 90 mins; type: physicochemical; conditions: 1.5 h
# [17] = Elimination half life in healthy human subjects (6 subjects) at 2.9 mg/kg, po measured during oral dose (period-3) by HPLC method; type: ADME, organism-based; conditions: in vivo, read-out: beta t1/2 (converted)
# [18] = Apparent volume of distribution in healthy human subjects (6 subjects) at 2.6 mg/kg, iv by HPLC method; type: ADME, organism-based; conditions: in vivo, read-out: Vd(app)
# [19] = Cmax in healthy human subjects (6 subjects) at 2.9 mg/kg, po by HPLC method; type: ADME, organism-based; set-up: dose 2.9 mg/kg, route oral; conditions: in vivo
# [20] = Disposition rate constant at terminal phase in healthy human subjects (6 subjects) at 2.6 mg/kg, iv by HPLC method; type: ADME, organism-based; conditions: in vivo
# [21] = Tmax in healthy human subjects (6 subjects) at 2.9 mg/kg, po by HPLC method; type: ADME, organism-based; conditions: in vivo
# [22] = Terminal half life in healthy human subjects (6 subjects) at 2.9 mg/kg, po by HPLC method; type: ADME, organism-based; conditions: in vivo, read-out: beta t1/2 (converted)
# [23] = Disposition rate constant at terminal phase in healthy human subjects (6 subjects) at 2.9 mg/kg, po by HPLC method; type: ADME, organism-based; conditions: in vivo
compound,measurement,setting,value
CCC1(c2ccccc2)C(=O)NC(=O)NC1=O [PHENOBARBITAL],bioavailability,[1],100%
same,bioavailability,[2],83.4%
same,half-life,[3],147 h
same,half-life,[4],128 h
same,half-life,[5],139 h
same,Drug dissolution,[6],86%
same,Tmax,[7],≤ 18 h
same,bioavailability,[8],94.9%
same,Drug dissolution,[9],81.5%
same,CL renal,[10],0.8 mL/h/kg
same,alphat1/2,Homo sapiens [11],0.18 h
same,clearance,[12],3 mL/h/kg
same,Tmax,[13],50 h
same,K,Homo sapiens [14],3.8 h⁻¹
same,Drug dissolution,[15],80%
same,Drug dissolution,[16],61.3%
same,half-life,[17],149 h
same,Vd,[18],0.6 L/kg
same,Cmax,[19],5500 ng/mL
same,k el,[20],1.39e-06 s⁻¹
same,Tmax,[21],2.3 h
same,half-life,[22],122 h
same,k el,[23],1.58e-06 s⁻¹
